The values below come from patent publication US4985449A, “N-benzoyl-N-pyridyloxy phenyl urea compounds and pesticide compositions containing them” (Ishihara Sangyo Kaisha Ltd., priority 1986, dated 1991).

Type in all cases: in vivo
In assay [1] the test system is house mosquito (Cullex pipiens pallens). The assay can be described thus: Larvicidal test against larvae of house mosquito (Test Example 5). The conditions noted are these: 216 h, 2.5 ppb, 9th day after release, 26° C. As to the method: Two hundreds ml of a diluted solution containing 2.5 ppb of each active ingredient was poured into a jar and 20 larvae of house mosquito (Cullex pipiens pallens) were released into the jar. Then, the jar was kept in a constant temperature chamber with lightening at 26° C. Larvae were fed every other day with 1-2 mg of powdered feed. On the 9th day after the release, dead insects were counted, and the mortality was calculated in the same manner as in Test Example 2. The results are shown in […]

Assay [2] relates to house fly (Musca domestica). The assay can be described thus: Egg hatch inhibition test by the treatment of adults of house fly (Test Example 6). The conditions noted are these: po, 100 μg/g in diet of adult females for 3 days, unhatched eggs assessed one day after collection, read-out: ratio of the egg hatch inhibition (REHI). As to the method:
Sugar and skim milk were mixed in a weight ratio of 1:1, and 2 g of the mixture was put into a Petri dish having a diameter of 5.5 cm. 0.5 ml of an acetone solution containing the active ingredient was added to the mixture in the Petri dish. After acetone evaporated, the treated mixture was thoroughly mixed, and the concentration of the active ingredient was adjusted to 100 μg/g. Twenty non-mating females of house fly (Musca domestica) were allowed to feed on the poisoned diet (the treated mixture) in a cage. After 3 days, the diet was changed to the untreated mixture, then 20 non-mating males were released into the cage for mating. On the 3rd day after release, a cup of the medium for rearing fly larvae was set in the cage for oviposition for 7 hours. The egg laid on the medium were collected and kept on the moistened filter paper in a Petri dish. One day later, unhatched eggs were assessed and the ratio of the egg hatch inhibition (REHI) was calculated by the following equation: [formula]

In assay [3] the test system is two-spotted spider mite (Tetranychus urticae). The assay can be described thus: Miticidal test against two-spotted spider mite (Test Example 1). The settings on record: 120 h, 800 ppm, 5th day after treatment, larvae and nimphs on French bean, 26° C. The source says:
Each formulation containing an active ingredient was dispersed in water to obtain a dispersion of each active ingredient having a concentration of 800 or 200 ppm. Each of French bean seedlings with only on primary leaf left, was transplanted to a cup having a diameter of 7 cm and a height of 4 cm. About 30 larvae and […] of two-spotted spider mite (Tetranychus urticae) were infested to the leaf of the French bean. Then, the French bean was dipped in the dispersion having the concentration of 800 ppm or 200 ppm for about 10 seconds, then dried in air and kept in a constant temperature chamber with lightening at 26° C. On the 5th day after the treatment, dead mites were counted, and the mortality was calculated by the following equation: [formula]

SMILES strings stand for the structures.

What is called mortality is the percentage killed. Higher therefore signals a strong lethal effect. For `CN(C(=O)NC(=O)c1c(F)cccc1F)c1cc(Cl)c(Oc2ncc(C(F)(F)F)cc2Cl)c(Cl)c1` [Compound No. 1, N-[3,5-dichloro-4-(3-chloro-5-trifluoromethyl-2-pyridyloxy)phenyl]-N'-(2,6difluorobenzoyl)-N-methylurea], in assay [1], the mortality at 0.0025 ppm worked out at 100%. For the same compound, in assay [2], the inhibition at 100 µg/g worked out at 100%.

As to `CN(C(=O)NC(=O)c1c(F)cccc1F)c1ccc(Oc2ncc(C(F)(F)F)cc2Cl)c(F)c1` [Compound No. 3, N-{4-[3-chloro-5-trifluoromethyl-2-pyridyloxy]-3-fluorophenyl}-N'-(2,6-difluorobenzoyl)-N-methylurea], in assay [1], the mortality at 0.0025 ppm turned out to be 100%. Moreover, in assay [2], the inhibition at 100 µg/g worked out at 88%.

`CN(C(=O)NC(=O)c1c(F)cccc1F)c1ccc(Oc2ccc(C(F)(F)F)cc2Cl)c(F)c1` [Compound No. 4, N-{4-[2-chloro-4-trifluoromethylphenoxy]-3-fluorophenyl}-N'-(2,6-difluorobenzoyl)-N-methylurea] gave a mortality at 0.0025 ppm in assay [1] of 100%. The mortality at 800 ppm in assay [3] worked out at 90%.
